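A five-concentration, 48-hour dose response in 96-well plates underlies each endpoint, interpolated linearly between surrounding concentrations. GI50 = concentration required for 50% inhibition of growth.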 The source made the active and inactive calls. Rule as the data show it: active = GI50 up to about 1.1 µM and inactive = higher.
Columns and labels:
Assay in all cases: NCI anticancer screen, dose series, 48 h
[1] = tested on: DMS-273
[2] = tested on: LXFL 529
[3] = tested on: KM-20L2
[4] = tested on: DLD-1
[5] = tested on: SNB-78
[6] = tested on: XF498
[7] = tested on: RXF 631
[8] = tested on: M19-MEL
[9] = tested on: HOP-18

CNC(=O)OCc1nc(SSC(C)(C)C)n(C)c1COC(=O)NC
GI50 [1]: 5.97 µM (inactive) | GI50 [2]: 1.24 µM (inactive) | GI50 [3]: 12.8 µM (inactive) | GI50 [4]: 1.43 µM (inactive) | GI50 [5]: 7.83 µM (inactive) | GI50 [6]: 2.32 µM (inactive) | GI50 [7]: 1.73 µM (inactive) | GI50 [8]: 3.32 µM (inactive) | GI50 [9]: 5.18 µM (inactive)

C/C(CC(=O)Nc1cccc(C)c1C)=N\NC(N)=S
GI50 [1]: > 100 µM (inactive) | GI50 [2]: > 100 µM (inactive) | GI50 [3]: > 100 µM (inactive) | GI50 [4]: > 100 µM (inactive) | GI50 [5]: > 100 µM (inactive) | GI50 [6]: > 100 µM (inactive) | GI50 [7]: 91.2 µM (inactive) | GI50 [8]: > 100 µM (inactive) | GI50 [9]: > 100 µM (inactive)

COC(=O)/C1=C/C2CC(/C=C(/c3ccccc3)C(=O)O1)C2
GI50 [1]: 21.5 µM (inactive) | GI50 [4]: 22.8 µM (inactive) | GI50 [6]: 22 µM (inactive) | GI50 [8]: 23.1 µM (inactive) | GI50 [9]: 27.5 µM (inactive)

c1ccc2c(c1)c1ccccc1c1n[se]nc21
GI50 [1]: > 100 µM (inactive) | GI50 [2]: 21.8 µM (inactive) | GI50 [3]: > 100 µM (inactive) | GI50 [4]: > 100 µM (inactive) | GI50 [5]: > 100 µM (inactive) | GI50 [6]: 31.5 µM (inactive) | GI50 [7]: 89.7 µM (inactive) | GI50 [9]: < 0.01 µM (active)

C#CCN(N=O)C(=O)NCCCCC(NC(=O)OCc1ccccc1)C(=O)OCc1ccccc1 (centres undefined)
GI50 [1]: 84.3 µM (inactive) | GI50 [2]: 19.1 µM (inactive) | GI50 [3]: > 100 µM (inactive) | GI50 [4]: 29 µM (inactive) | GI50 [5]: 46.2 µM (inactive) | GI50 [6]: 29.9 µM (inactive) | GI50 [8]: 23.3 µM (inactive) | GI50 [9]: > 100 µM (inactive)

CC(/C=C1\CCC(CN(C)C)C1=O)c1cccc(Br)c1 (centres undefined)
GI50 [2]: 5.62 µM (inactive) | GI50 [3]: 21.4 µM (inactive) | GI50 [4]: 9.57 µM (inactive) | GI50 [5]: 16.4 µM (inactive) | GI50 [6]: 20.6 µM (inactive) | GI50 [7]: 7.91 µM (inactive) | GI50 [8]: 20.7 µM (inactive) | GI50 [9]: 18.7 µM (inactive)

CC(C)c1ccc(C2C3=C(N=C4SCC(=O)N42)C(=O)c2ccccc23)cc1 (centres undefined)
GI50 [1]: > 100 µM (inactive) | GI50 [2]: 52.4 µM (inactive) | GI50 [3]: > 100 µM (inactive) | GI50 [4]: 81.8 µM (inactive) | GI50 [6]: 87.3 µM (inactive) | GI50 [7]: > 100 µM (inactive) | GI50 [8]: 83.4 µM (inactive)

CC(C)=CC(=O)Oc1ccc([N+](=O)[O-])cc1
GI50 [1]: > 100 µM (inactive) | GI50 [2]: > 100 µM (inactive) | GI50 [3]: > 100 µM (inactive) | GI50 [4]: > 100 µM (inactive) | GI50 [5]: > 100 µM (inactive) | GI50 [6]: > 100 µM (inactive) | GI50 [8]: > 100 µM (inactive) | GI50 [9]: > 100 µM (inactive)

O=C1CCCc2ccc([N+](=O)[O-])c(O)c21
GI50 [1]: > 100 µM (inactive) | GI50 [2]: > 100 µM (inactive) | GI50 [3]: > 100 µM (inactive) | GI50 [4]: > 100 µM (inactive) | GI50 [5]: > 100 µM (inactive) | GI50 [8]: > 100 µM (inactive)

C[N+](C)(C)CC1CCCC/C1=N\OC(=O)c1ccccc1 (centres undefined)
GI50 [1]: > 100 µM (inactive) | GI50 [2]: > 100 µM (inactive) | GI50 [3]: > 100 µM (inactive) | GI50 [4]: > 100 µM (inactive) | GI50 [5]: > 100 µM (inactive) | GI50 [7]: > 100 µM (inactive) | GI50 [8]: > 100 µM (inactive) | GI50 [9]: > 100 µM (inactive)

S=P(c1ccccc1)(c1ccccc1)C1(C2(P(=S)(c3ccccc3)c3ccccc3)CC2)CC1
GI50 [1]: > 100 µM (inactive) | GI50 [2]: > 100 µM (inactive) | GI50 [3]: > 100 µM (inactive) | GI50 [4]: > 100 µM (inactive) | GI50 [5]: > 100 µM (inactive) | GI50 [6]: > 100 µM (inactive) | GI50 [7]: > 100 µM (inactive) | GI50 [8]: > 100 µM (inactive)

Sc1nnc(/C=C/c2ccc(Cl)c(Cl)c2)[nH]1
GI50 [1]: > 100 µM (inactive) | GI50 [3]: > 100 µM (inactive) | GI50 [4]: > 100 µM (inactive) | GI50 [6]: 30.9 µM (inactive)

O=C(CCC1CCCCN1)Nc1ccc2c(c1)C(=O)c1ccc(NC(=O)CCN3CCCCC3)cc1C2=O (centres undefined)
GI50 [1]: 2.54 µM (inactive) | GI50 [2]: 1.32 µM (inactive) | GI50 [3]: 3.21 µM (inactive) | GI50 [4]: 1.61 µM (inactive) | GI50 [5]: 4.56 µM (inactive) | GI50 [8]: 2.04 µM (inactive) | GI50 [9]: 2.79 µM (inactive)

CC1OC(n2cc(Cl)c(=O)[nH]c2=O)C=C(OC(=O)c2ccccc2)C1=O (centres undefined)
GI50 [1]: > 100 µM (inactive) | GI50 [3]: > 100 µM (inactive) | GI50 [4]: > 100 µM (inactive) | GI50 [5]: > 100 µM (inactive) | GI50 [6]: > 100 µM (inactive) | GI50 [7]: > 100 µM (inactive) | GI50 [8]: > 100 µM (inactive) | GI50 [9]: > 100 µM (inactive)

O=S(=O)(/C=C/C(=C/c1ccccc1)S(=O)(=O)c1ccccc1)c1ccccc1
GI50 [1]: 1.52 µM (inactive) | GI50 [2]: 1.7 µM (inactive) | GI50 [6]: 1.7 µM (inactive) | GI50 [7]: 1.07 µM (active)

Cc1noc2cccc(O)c12
GI50 [1]: > 100 µM (inactive) | GI50 [2]: > 100 µM (inactive) | GI50 [3]: > 100 µM (inactive) | GI50 [4]: > 100 µM (inactive) | GI50 [5]: > 100 µM (inactive) | GI50 [6]: > 100 µM (inactive) | GI50 [8]: > 100 µM (inactive) | GI50 [9]: > 100 µM (inactive)

Cc1cc(NS(=O)(=O)c2ccc(Nc3c4ccccc4nc4c(C(=O)Nc5ccc(S(N)(=O)=O)cc5)cccc34)cc2)no1
GI50 [1]: > 100 µM (inactive) | GI50 [2]: 21.1 µM (inactive) | GI50 [3]: > 100 µM (inactive) | GI50 [4]: > 100 µM (inactive) | GI50 [5]: 23.9 µM (inactive) | GI50 [6]: 20.9 µM (inactive) | GI50 [8]: 25.1 µM (inactive) | GI50 [9]: > 100 µM (inactive)

N#C/C(=C/c1ccc([N+](=O)[O-])o1)c1ccccc1
GI50 [1]: > 100 µM (inactive) | GI50 [2]: > 100 µM (inactive) | GI50 [3]: > 100 µM (inactive) | GI50 [4]: > 100 µM (inactive) | GI50 [5]: > 100 µM (inactive) | GI50 [8]: > 100 µM (inactive) | GI50 [9]: > 100 µM (inactive)

C=C(c1ccccc1N)[C@@]1(O)C[C@H](/C(=C\C)CO)C[C@@H]1NCc1ccccc1
GI50 [1]: 28.6 µM (inactive) | GI50 [3]: 17.3 µM (inactive) | GI50 [5]: 25.2 µM (inactive) | GI50 [8]: 23.6 µM (inactive) | GI50 [9]: 20.4 µM (inactive)

COc1nc(=O)cc(N)n1C1OC(CO)C(O)C1O (centres undefined)
GI50 [1]: > 100 µM (inactive) | GI50 [2]: > 100 µM (inactive) | GI50 [3]: > 100 µM (inactive) | GI50 [4]: > 100 µM (inactive) | GI50 [5]: > 100 µM (inactive) | GI50 [8]: > 100 µM (inactive)

O=C(CSc1nc(-c2ccccc2)c(-c2ccccc2)[nH]1)N/N=C/c1ccc(O)cc1
GI50 [1]: 18.3 µM (inactive) | GI50 [2]: 30.5 µM (inactive) | GI50 [3]: 24.5 µM (inactive) | GI50 [4]: 36.7 µM (inactive) | GI50 [5]: 37.9 µM (inactive) | GI50 [6]: 28.5 µM (inactive) | GI50 [8]: 19.4 µM (inactive) | GI50 [9]: 12.2 µM (inactive)

N#CC(c1ccc(Cl)cc1)c1cccc(C(C#N)c2ccc(Cl)cc2)n1 (centres undefined)
GI50 [2]: 7.78 µM (inactive) | GI50 [3]: 38.8 µM (inactive) | GI50 [4]: 37.2 µM (inactive) | GI50 [5]: 20.7 µM (inactive) | GI50 [6]: 5.13 µM (inactive) | GI50 [8]: 19.6 µM (inactive)

O=C(NC(c1ccccc1)C(O)C(=O)OCc1ccc2c(c1)C(=O)c1ccccc1C2=O)c1ccccc1 (centres undefined)
GI50 [1]: 18.6 µM (inactive) | GI50 [2]: 44.7 µM (inactive) | GI50 [3]: > 51.2 µM (inactive) | GI50 [4]: 21.2 µM (inactive) | GI50 [5]: 56.6 µM (inactive) | GI50 [6]: 16 µM (inactive) | GI50 [7]: 30.5 µM (inactive) | GI50 [8]: 53.6 µM (inactive) | GI50 [9]: 3.56 µM (inactive)

COc1cc2c(oc(=O)c3c4occc4cc(OC)c23)c2cccc(O)c12
GI50 [1]: > 100 µM (inactive) | GI50 [2]: > 100 µM (inactive) | GI50 [3]: > 100 µM (inactive) | GI50 [4]: > 100 µM (inactive) | GI50 [5]: > 100 µM (inactive) | GI50 [6]: > 100 µM (inactive) | GI50 [8]: > 100 µM (inactive) | GI50 [9]: > 100 µM (inactive)

Cc1ccccc1NC(=O)C(=O)C(C#N)c1ccc(Cl)cc1 (centres undefined)
GI50 [1]: 33 µM (inactive) | GI50 [2]: 51.4 µM (inactive) | GI50 [3]: 33.6 µM (inactive) | GI50 [4]: 41.8 µM (inactive) | GI50 [5]: > 100 µM (inactive) | GI50 [6]: 33.8 µM (inactive) | GI50 [7]: 34.7 µM (inactive) | GI50 [9]: 47.8 µM (inactive)

Cc1cccc(C(C)C)c1NC(=O)C(=O)CC(=O)c1c(C)[n+]([O-])c2ccccc2[n+]1[O-]
GI50 [1]: 33.8 µM (inactive) | GI50 [2]: 34 µM (inactive) | GI50 [3]: 37.6 µM (inactive) | GI50 [5]: 49 µM (inactive) | GI50 [7]: 18.1 µM (inactive) | GI50 [8]: 19.8 µM (inactive) | GI50 [9]: 96.4 µM (inactive)

CC(C)(C)C1CCC2c3c([nH]c4ccccc34)C3C(=O)N(c4ccc(Br)cc4)C(=O)C3C2C1 (centres undefined)
GI50 [1]: 17.1 µM (inactive) | GI50 [2]: 21.7 µM (inactive) | GI50 [3]: 15.1 µM (inactive) | GI50 [4]: 41.4 µM (inactive) | GI50 [5]: 26.4 µM (inactive) | GI50 [6]: 38.4 µM (inactive) | GI50 [8]: 16.8 µM (inactive) | GI50 [9]: 52.4 µM (inactive)

COC(=O)c1cccc2cccc(C(=O)Nc3ccc(Cl)cc3)c12
GI50 [1]: 0.729 µM (active) | GI50 [2]: 0.474 µM (active) | GI50 [3]: > 24.2 µM (inactive) | GI50 [4]: > 21.7 µM (inactive) | GI50 [5]: 56.1 µM (inactive) | GI50 [6]: > 73.3 µM (inactive) | GI50 [7]: > 86.1 µM (inactive) | GI50 [8]: 4.35 µM (inactive) | GI50 [9]: > 100 µM (inactive)

From ChEMBL document CHEMBL1201862, “PubChem BioAssay data set” (2004)
